Data published in patent US20210309619A1, “ISOXAZOLIN-5-ONE DERIVATIVES AND HERBICIDES CONTAINING THE SAME AS ACTIVE INGREDIENTS” (HOKKO CHEMICAL INDUSTRY CO., LTD., priority 2018, published 2021).

Legend:
Type in all cases: in vivo
[1] = test system: Echinochloa crus-galli; experiment: Herbicidal effect test by treatment of rice paddy soil (Test Example 1); conditions: 120 g/10 a, treated immediately after seeding, 14 days after treatment
Experimental: (§1) Wagner pots with an area of 1/10000 ares were filled with a paddy soil, and a compound fertilizer (N:P:K=17:17:17) was mixed after water was added, followed by soil puddling. Then, Echinochloa crus-galli, broad leaf weeds (Lindernia pyxidaria and Monochoria vaginalis) and Scirpus juncoides, 30 seeds each, were sown in a depth of 0 to 1 cm. Water was poured immediately after seeding, and the water depth was kept at about 3 cm. A subsequent management was conducted in a glass greenhouse. Immediately after that, emulsions prepared using the compounds in Table 3 below according to Formulation Example 5 were diluted with water, and a certain amount of the water-diluted agent solutions were dropped. A converted amount of the applied active ingredient corresponded to 120 g per 10 ares.
(§2) This test was conducted in a double system per one agent solution concentration area, and the herbicidal rates (%) were determined by the following equation (Math. 1) 14 days after the treatment with the agents.
(§3) Herbicidal Rate (%)={1−(Average Dry Weight (g) of Plant of Treated Area)/(Average Dry Weight (g) of Plant of Untreated Area)}×100 [Math. 1]

[2] = test system: Lindernia pyxidaria; experiment: as above; conditions: 120 g/10 a, treated immediately after seeding, 14 days after treatment
Experimental: as §1, §2, §3

[3] = test system: Monochoria vaginalis; experiment: as above; conditions: 120 g/10 a, treated immediately after seeding, 14 days after treatment
Experimental: as §1, §2, §3

[4] = test system: Scirpus juncoides; experiment: as above; conditions: 120 g/10 a, treated immediately after seeding, 14 days after treatment
Experimental: as §1, §2, §3

[5] = test system: Echinochloa crus-galli; experiment: Herbicidal effect test by treatment during growing period in paddy rice cultivation (Test Example 2); conditions: 120 g/10 a, treated seven days after seeding, 14 days after treatment
From the text: as §3
as §1, with “after addition of water,” for “after water was added,”, “greenhouse. Emulsions” for “greenhouse. Immediately after that, emulsions”, “Table 4” for “Table 3”, “with water seven days after seeding,” for “with water,”, “ares. The test was conducted in a double system per one agent solution concentration area, and the herbicidal rates (%) were determined by the equation (Math. 1) 14 days after the treatment with the agents. In this regard, the compound numbers in Table 4 are the same as those in Table 1 and Table 2 above.” for “ares.”

[6] = test system: Lindernia pyxidaria; experiment: as above; conditions: 120 g/10 a, treated seven days after seeding, 14 days after treatment
From the text: as §3
as §1, with “after addition of water,” for “after water was added,”, “greenhouse. Emulsions” for “greenhouse. Immediately after that, emulsions”, “Table 4” for “Table 3”, “with water seven days after seeding,” for “with water,”, “ares. The test was conducted in a double system per one agent solution concentration area, and the herbicidal rates (%) were determined by the equation (Math. 1) 14 days after the treatment with the agents. In this regard, the compound numbers in Table 4 are the same as those in Table 1 and Table 2 above.” for “ares.”

[7] = test system: Monochoria vaginalis; experiment: as above; conditions: 120 g/10 a, treated seven days after seeding, 14 days after treatment
From the text: as §3
as §1, with “after addition of water,” for “after water was added,”, “greenhouse. Emulsions” for “greenhouse. Immediately after that, emulsions”, “Table 4” for “Table 3”, “with water seven days after seeding,” for “with water,”, “ares. The test was conducted in a double system per one agent solution concentration area, and the herbicidal rates (%) were determined by the equation (Math. 1) 14 days after the treatment with the agents. In this regard, the compound numbers in Table 4 are the same as those in Table 1 and Table 2 above.” for “ares.”

[8] = test system: Scirpus juncoides; experiment: as above; conditions: 120 g/10 a, treated seven days after seeding, 14 days after treatment
From the text: as §3
as §1, with “after addition of water,” for “after water was added,”, “greenhouse. Emulsions” for “greenhouse. Immediately after that, emulsions”, “Table 4” for “Table 3”, “with water seven days after seeding,” for “with water,”, “ares. The test was conducted in a double system per one agent solution concentration area, and the herbicidal rates (%) were determined by the equation (Math. 1) 14 days after the treatment with the agents. In this regard, the compound numbers in Table 4 are the same as those in Table 1 and Table 2 above.” for “ares.”

[9] = test system: Amaranthus viridis; experiment: Herbicidal effect test by treatment of dry field farming soil (Test Example 3); conditions: 120 g/10 a, sprayed one day after seeding, 14 days after treatment
From the text: (§4) Herbicidal Rate (%)={1−(Average Dry Weight (g) of Plant of Treated Area)/(Average Dry Weight (g) of Plant of Untreated Area)}×100 [Math. 1] Pots with a size of 36 cm^2 were filled with a dry field farming soil (alluvium). The soil of the top layer of 1 cm and seeds of weeds, namely southern crabgrass, Echinochloa crus-galli, Chenopodium album and Amaranthus viridis, 20 seeds each, were evenly mixed, and the top layer was gently pressed. Emulsions prepared using the compounds in Table 5 below according to Formulation Example 5 were diluted with water one day after seeding, and the water-diluted agent solutions were sprayed to the soil surfaces at a ratio of 100 liters per 10 ares. A converted amount of the applied active ingredient corresponded to 120 g per 10 ares. The herbicidal effects were evaluated by the same standard as that in Test Example 1, 14 days after the treatment with the agents. In this regard, the compound numbers in Table 5 are the same as those in Table 1 and Table 2 above.

[10] = test system: Chenopodium album; experiment: as above; conditions: 120 g/10 a, sprayed one day after seeding, 14 days after treatment
From the text: as §4

[11] = test system: Echinochloa crus-galli; experiment: as above; conditions: 120 g/10 a, sprayed one day after seeding, 14 days after treatment
From the text: as §4

[12] = test system: southern crabgrass; experiment: as above; conditions: 120 g/10 a, sprayed one day after seeding, 14 days after treatment
From the text: as §4

[13] = test system: Amaranthus viridis; experiment: Herbicidal effect test by treatment of stem and leaf in dry field farming (Test Example 4); conditions: 120 g/10 a, stem and leaf treatment seven days after seeding, 14 days after treatment
From the text: as §4, with “Table 6” for “Table 5”, “water seven days” for “water one day”

[14] = test system: Chenopodium album; experiment: as above; conditions: 120 g/10 a, stem and leaf treatment seven days after seeding, 14 days after treatment
From the text: as §4, with “Table 6” for “Table 5”, “water seven days” for “water one day”

[15] = test system: Echinochloa crus-galli; experiment: as above; conditions: 120 g/10 a, stem and leaf treatment seven days after seeding, 14 days after treatment
From the text: as §4, with “Table 6” for “Table 5”, “water seven days” for “water one day”

[16] = test system: southern crabgrass; experiment: as above; conditions: 120 g/10 a, stem and leaf treatment seven days after seeding, 14 days after treatment
From the text: as §4, with “Table 6” for “Table 5”, “water seven days” for “water one day”

Compound: COC1CCCCC1n1oc(=O)c(Cc2ccccc2N(C(=O)Oc2ccccc2)S(=O)(=O)C(F)(F)F)c1C (single isomer, unassigned) [Compound 288]
- Herbicidal rate, Echinochloa crus-galli [1]: 100%
- Herbicidal rate, Lindernia pyxidaria [2]: 100%
- Herbicidal rate, Monochoria vaginalis [3]: 100%
- Herbicidal rate, Scirpus juncoides [4]: 100%
- Herbicidal rate, Echinochloa crus-galli [5]: 100%
- Herbicidal rate, Lindernia pyxidaria [6]: 90%
- Herbicidal rate, Monochoria vaginalis [7]: 90%
- Herbicidal rate, Scirpus juncoides [8]: 90%
- Herbicidal rate, Amaranthus viridis [9]: 40%
- Herbicidal rate, Chenopodium album [10]: 60%
- Herbicidal rate, Echinochloa crus-galli [11]: 90%
- Herbicidal rate, southern crabgrass [12]: 90%
- Herbicidal rate, Amaranthus viridis [13]: 90%
- Herbicidal rate, Chenopodium album [14]: 90%
- Herbicidal rate, Echinochloa crus-galli [15]: 90%
- Herbicidal rate, southern crabgrass [16]: 90%

Compound: COC1CCCCC1n1oc(=O)c(Cc2ccccc2N(C(=O)Oc2ccccc2)S(=O)(=O)C(F)(F)F)c1C (single isomer, unassigned) [Compound 289]
- Herbicidal rate, Echinochloa crus-galli [1]: 100%
- Herbicidal rate, Lindernia pyxidaria [2]: 100%
- Herbicidal rate, Monochoria vaginalis [3]: 100%
- Herbicidal rate, Scirpus juncoides [4]: 100%
- Herbicidal rate, Lindernia pyxidaria [6]: 90%
- Herbicidal rate, Monochoria vaginalis [7]: 90%
- Herbicidal rate, Scirpus juncoides [8]: 90%
- Herbicidal rate, Amaranthus viridis [9]: 40%
- Herbicidal rate, Chenopodium album [10]: 60%
- Herbicidal rate, Echinochloa crus-galli [11]: 90%
- Herbicidal rate, southern crabgrass [12]: 90%
- Herbicidal rate, Amaranthus viridis [13]: 90%
- Herbicidal rate, Chenopodium album [14]: 90%

Compound: COC1CCCC1n1oc(=O)c(Cc2ccccc2NS(=O)(=O)C(F)(F)F)c1C (centres unmarked) [Compound 59, 1,1,1-trifluoro-N-[2-[[(2-methoxycyclopentyl)-3-methyl-5-oxoisoxazol-4-yl]methyl]phenyl]methanesulfonamide]
- Herbicidal rate, Echinochloa crus-galli [1]: 100%
- Herbicidal rate, Lindernia pyxidaria [2]: 100%
- Herbicidal rate, Monochoria vaginalis [3]: 100%
- Herbicidal rate, Scirpus juncoides [4]: 100%
- Herbicidal rate, Echinochloa crus-galli [5]: 100%
- Herbicidal rate, Lindernia pyxidaria [6]: 80%
- Herbicidal rate, Monochoria vaginalis [7]: 90%
- Herbicidal rate, Scirpus juncoides [8]: 90%
- Herbicidal rate, Amaranthus viridis [9]: 60%
- Herbicidal rate, Chenopodium album [10]: 60%
- Herbicidal rate, Echinochloa crus-galli [11]: 90%
- Herbicidal rate, southern crabgrass [12]: 90%
- Herbicidal rate, Amaranthus viridis [13]: 90%
- Herbicidal rate, Chenopodium album [14]: 90%
- Herbicidal rate, Echinochloa crus-galli [15]: 90%
- Herbicidal rate, southern crabgrass [16]: 90%

Compound: COC1CCCCC1n1oc(=O)c(Cc2ccccc2NS(=O)(=O)C(F)(F)F)c1C (centres unmarked) [Compound 62, 1,1,1-trifluoro-N-[2-[[(2-methoxycyclohexyl)-3-methyl-5-oxoisoxazol-4-yl]methyl]phenyl]methanesulfonamide]
- Herbicidal rate, Echinochloa crus-galli [1]: 100%
- Herbicidal rate, Lindernia pyxidaria [2]: 100%
- Herbicidal rate, Monochoria vaginalis [3]: 100%
- Herbicidal rate, Scirpus juncoides [4]: 100%
- Herbicidal rate, Echinochloa crus-galli [5]: 100%
- Herbicidal rate, Lindernia pyxidaria [6]: 80%
- Herbicidal rate, Monochoria vaginalis [7]: 90%
- Herbicidal rate, Scirpus juncoides [8]: 90%
- Herbicidal rate, Amaranthus viridis [9]: 60%
- Herbicidal rate, Chenopodium album [10]: 60%
- Herbicidal rate, Echinochloa crus-galli [11]: 90%
- Herbicidal rate, southern crabgrass [12]: 90%
- Herbicidal rate, Amaranthus viridis [13]: 90%
- Herbicidal rate, Chenopodium album [14]: 90%
- Herbicidal rate, Echinochloa crus-galli [15]: 90%
- Herbicidal rate, southern crabgrass [16]: 90%

Compound: COC1CCCC1n1oc(=O)c(Cc2ccccc2N(C(C)=O)S(=O)(=O)C(F)(F)F)c1C (centres unmarked) [Compound 107, N-[2-[[(2-methoxycyclopentyl)-3-methyl-5-oxoisoxazol-4-yl]methyl]phenyl]-N-(trifluoromethylsulfonyl)acetamide]
- Herbicidal rate, Echinochloa crus-galli [1]: 100%
- Herbicidal rate, Lindernia pyxidaria [2]: 100%
- Herbicidal rate, Monochoria vaginalis [3]: 100%
- Herbicidal rate, Scirpus juncoides [4]: 100%
- Herbicidal rate, Echinochloa crus-galli [5]: 100%
- Herbicidal rate, Lindernia pyxidaria [6]: 80%
- Herbicidal rate, Monochoria vaginalis [7]: 90%
- Herbicidal rate, Scirpus juncoides [8]: 90%
- Herbicidal rate, Amaranthus viridis [9]: 60%
- Herbicidal rate, Chenopodium album [10]: 60%
- Herbicidal rate, Echinochloa crus-galli [11]: 90%
- Herbicidal rate, southern crabgrass [12]: 90%
- Herbicidal rate, Amaranthus viridis [13]: 90%
- Herbicidal rate, Chenopodium album [14]: 90%
- Herbicidal rate, Echinochloa crus-galli [15]: 90%
- Herbicidal rate, southern crabgrass [16]: 80%

Compound: COC1CCCC1n1oc(=O)c(Cc2ccccc2N(C(=O)C(C)C)S(=O)(=O)C(F)(F)F)c1C (centres unmarked) [Compound 113]
- Herbicidal rate, Echinochloa crus-galli [1]: 100%
- Herbicidal rate, Lindernia pyxidaria [2]: 100%
- Herbicidal rate, Monochoria vaginalis [3]: 100%
- Herbicidal rate, Scirpus juncoides [4]: 100%
- Herbicidal rate, Echinochloa crus-galli [5]: 100%
- Herbicidal rate, Lindernia pyxidaria [6]: 80%
- Herbicidal rate, Monochoria vaginalis [7]: 90%
- Herbicidal rate, Scirpus juncoides [8]: 90%
- Herbicidal rate, Amaranthus viridis [9]: 60%
- Herbicidal rate, Chenopodium album [10]: 60%
- Herbicidal rate, Echinochloa crus-galli [11]: 90%
- Herbicidal rate, southern crabgrass [12]: 90%
- Herbicidal rate, Amaranthus viridis [13]: 90%
- Herbicidal rate, Chenopodium album [14]: 90%
- Herbicidal rate, Echinochloa crus-galli [15]: 90%
- Herbicidal rate, southern crabgrass [16]: 80%

Compound: COC1CCCC1n1oc(=O)c(Cc2ccccc2N(C(=O)CC(C)C)S(=O)(=O)C(F)(F)F)c1C (centres unmarked) [Compound 119]
- Herbicidal rate, Echinochloa crus-galli [1]: 100%
- Herbicidal rate, Lindernia pyxidaria [2]: 100%
- Herbicidal rate, Monochoria vaginalis [3]: 100%
- Herbicidal rate, Scirpus juncoides [4]: 100%
- Herbicidal rate, Echinochloa crus-galli [5]: 100%
- Herbicidal rate, Lindernia pyxidaria [6]: 80%
- Herbicidal rate, Monochoria vaginalis [7]: 90%
- Herbicidal rate, Scirpus juncoides [8]: 90%
- Herbicidal rate, Amaranthus viridis [9]: 60%
- Herbicidal rate, Chenopodium album [10]: 60%
- Herbicidal rate, Echinochloa crus-galli [11]: 90%
- Herbicidal rate, southern crabgrass [12]: 90%
- Herbicidal rate, Amaranthus viridis [13]: 90%
- Herbicidal rate, Chenopodium album [14]: 90%
- Herbicidal rate, Echinochloa crus-galli [15]: 90%
- Herbicidal rate, southern crabgrass [16]: 80%

Compound: COC1CCCC1n1oc(=O)c(Cc2ccccc2N(C(=O)c2ccc(Cl)cc2)S(=O)(=O)C(F)(F)F)c1C (centres unmarked) [Compound 147]
- Herbicidal rate, Echinochloa crus-galli [1]: 100%
- Herbicidal rate, Lindernia pyxidaria [2]: 100%
- Herbicidal rate, Monochoria vaginalis [3]: 100%
- Herbicidal rate, Scirpus juncoides [4]: 100%
- Herbicidal rate, Echinochloa crus-galli [5]: 100%
- Herbicidal rate, Lindernia pyxidaria [6]: 80%
- Herbicidal rate, Monochoria vaginalis [7]: 90%
- Herbicidal rate, Scirpus juncoides [8]: 90%
- Herbicidal rate, Amaranthus viridis [9]: 60%
- Herbicidal rate, Chenopodium album [10]: 60%
- Herbicidal rate, Echinochloa crus-galli [11]: 90%
- Herbicidal rate, southern crabgrass [12]: 90%
- Herbicidal rate, Amaranthus viridis [13]: 90%
- Herbicidal rate, Chenopodium album [14]: 90%
- Herbicidal rate, Echinochloa crus-galli [15]: 90%
- Herbicidal rate, southern crabgrass [16]: 80%
